Experimental data taken from patent US10829481B2, “Benzimidazole derivatives as modulators of ROR-gamma” (Vitae Pharmaceuticals, LLC, priority 2016, dated 2020).

Experiments:
[1] = target: full-length RORγt in Jurkat cells (Homo sapiens (Human), UniProt P51449); assay: RORγt 5×RORE Assay in Jurkat Cells (Assay 2); format: cell-based; conditions: 5×RORE Nanoluc luciferase reporter
Experimental: RORγt 5×RORE Assay in Jurkat Cells (Assay 2)
Compounds described herein were tested for RORγ inverse agonist activity in a cell-based, transcriptional activity assay. Secreted Nanoluc® luciferase was used as a reporter for transcriptional activity of the full-length RORγt in Jurkat cells (ATCC, Cat. #TIB-152). […] (Promega, Cat. #N1021) using KpnI and HindIII restriction sites. […] After 5-6 hrs of incubation at 37° C./5% CO2, the cells were collected, resuspended in phenol-red free RPMI media containing 10% (v/v) delipidated FBS (Hyclone, Cat. #SH30855.03) and dispensed into 96-well clear bottom tissue culture plates (CoStar, Cat. #3603), at 80,000 cells per well. Tested compounds were added to the cells in the same media (final concentration of DMSO was 0.1% (v/v)), and the plates were incubated at 37° C./5% CO2 for 16-18 hrs. Luciferase activity in the conditioned supernatants was determined with NanoGlo® assay reagents (Promega, Cat. #N1130).

[2] = target: recombinant RORγ Ligand Binding Domain (LBD) protein (Homo sapiens (Human), UniProt P51449); assay: Radio-Ligand RORγ Binding Assay (Assay 1); conditions: competition with 25-hydroxy [26,27-3H]-cholesterol, SPA
recombinant RORγ Ligand Binding Domain (LBD) protein, sequence (P51449 269-508): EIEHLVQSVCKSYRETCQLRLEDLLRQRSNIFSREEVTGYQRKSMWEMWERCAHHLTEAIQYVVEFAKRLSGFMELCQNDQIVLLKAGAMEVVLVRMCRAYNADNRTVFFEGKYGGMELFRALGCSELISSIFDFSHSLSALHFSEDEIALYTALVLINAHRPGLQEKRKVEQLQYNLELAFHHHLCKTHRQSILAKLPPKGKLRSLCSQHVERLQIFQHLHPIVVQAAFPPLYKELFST
Experimental: Radio-Ligand RORγ Binding Assay (Assay 1)
Compounds described herein were tested for ability to bind to RORγ in a cell-free competition assay with commercially available radio-ligand (RL), 25-hydroxy [26,27-^3H]-cholesterol (PerkinElmer, Cat. #NET674250UC), for a ligand binding site on a recombinant RORγ Ligand Binding Domain (LBD) protein expressed as a 6×His-Glutathione-S-Transferase (GST) fusion. The assay was performed in 96-well SPA plates (PerkinElmer, Cat. #1450-401) in 50 mM HEPES buffer, pH 7.4, containing 150 mM NaCl, 5 mM MgCl2, 10% (v/v) glycerol, 2 mM CHAPS, 0.5 mM β-octylglucopyranoside and 5 mM DTT. Tested compounds were dissolved in DMSO, and semi-log (3.162×) serial dilutions of the compounds were prepared in the same solvent. Two μL of the DMSO solutions were mixed with 28 μL of 8.6 nM 25-hydroxy [26,27-^3H]-cholesterol and 50 μL of 24 nM RORγ LBD. The plate was shaken at 700 rpm for 20 min and incubated for 10 min at rt, after which 40 μL of poly-Lys YSi SPA beads (PerkinElmer, Cat. #RPNQ0010) were added to achieve […] of the beads per well. The plate was incubated on an orbital shaker for 20 min and then for 10 min without agitation at rt. SPA signal for tritium beta radiation was registered on PerkinElmer Microbeta plate reader. […] The percent inhibition vs. concentration data were fit into a four-parameter model, and IC50 values were calculated from the fit as the concentrations corresponding to the inflection points on the dose-response curves. Inhibitory constants (Ki) were calculated using the following equation, where [RL] is the concentration in the assay and KD is a dissociation constant of 25-hydroxy [26,27-^3H]-cholesterol: […]

full-length RORγt in Jurkat cells, sequence (P51449 other isoform, or with tags, fused parts or gaps): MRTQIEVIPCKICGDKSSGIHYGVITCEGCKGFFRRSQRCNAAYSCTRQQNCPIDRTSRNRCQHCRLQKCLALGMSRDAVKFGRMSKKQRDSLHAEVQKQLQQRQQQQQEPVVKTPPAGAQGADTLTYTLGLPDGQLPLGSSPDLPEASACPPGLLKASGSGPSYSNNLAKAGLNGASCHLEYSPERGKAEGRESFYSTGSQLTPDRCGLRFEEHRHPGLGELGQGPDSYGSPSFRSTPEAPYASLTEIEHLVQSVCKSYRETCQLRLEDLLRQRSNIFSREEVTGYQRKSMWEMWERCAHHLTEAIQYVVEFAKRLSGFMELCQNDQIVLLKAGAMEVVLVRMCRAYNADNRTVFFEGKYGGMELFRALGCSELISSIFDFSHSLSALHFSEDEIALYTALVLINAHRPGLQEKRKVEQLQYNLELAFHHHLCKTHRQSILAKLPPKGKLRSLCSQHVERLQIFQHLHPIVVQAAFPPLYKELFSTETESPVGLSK

| Structure (SMILES) | IC50 [1] [nM] | Ki [2] [nM] |
| --- | --- | --- |
| CCc1nc2cc(C(=O)N[C@@H](CO)c3ccc(S(=O)(=O)CC)cc3)ccc2n1Cc1cccc2c1OC(F)(F)O2 [I-16, (R)-1-((2,2-difluorobenzo[d][1,3]dioxol-4-yl)methyl)-2-ethyl-N-(1-(4-(ethylsulfonyl)phenyl)-2-hydroxyethyl)-1H-benzo[d]imidazole-5-carboxamide] | < 100 | < 100 |
| CCS(=O)(=O)c1ccc([C@H](CO)NC(=O)c2ccc3c(c2)nc(C(F)F)n3Cc2cccc3c2OC(F)(F)O3)cc1 [I-17, (R)-1-((2,2-difluorobenzo[d][1,3]dioxol-4-yl)methyl)-2-(difluoromethyl)-N-(1-(4-(ethylsulfonyl)phenyl)-2-hydroxyethyl)-1H-benzo[d]imidazole-5-carboxamide] | < 100 | < 100 |
| CCS(=O)(=O)c1ccc([C@H](CO)NC(=O)c2ccc3c(c2)nc(C2(F)CC2)n3Cc2cccc3c2OC(F)(F)O3)cc1 [I-18, (R)-1-((2,2-difluorobenzo[d][1,3]dioxol-4-yl)methyl)-N-(1-(4-(ethylsulfonyl)phenyl)-2-hydroxyethyl)-2-(1-fluorocyclopropyl)-1H-benzo[d]imidazole-5-carboxamide] | < 100 | < 100 |
| CS(=O)(=O)c1ccc([C@H](CO)NC(=O)c2ccc3c(c2)nc(C(F)(F)F)n3Cc2cccc3c2OC(F)(F)O3)cc1 [I-20.1, (R)-1-((2,2-difluorobenzo[d][1,3]dioxol-4-yl)methyl)-N-(2-hydroxy-1-(4-(methylsulfonyl)phenyl)ethyl)-2-(trifluoromethyl)-1H-benzo[d]imidazole-5-carboxamide] | < 100 | < 100 |
| CS(=O)(=O)c1ccc([C@@H](CO)NC(=O)c2ccc3c(c2)nc(C(F)(F)F)n3Cc2cccc3c2OC(F)(F)O3)cc1 [I-20.2, (S)-1-((2,2-difluorobenzo[d][1,3]dioxol-4-yl)methyl)-N-(2-hydroxy-1-(4-(methylsulfonyl)phenyl)ethyl)-2-(trifluoromethyl)-1H-benzo[d]imidazole-5-carboxamide] | < 100 | < 100 |
| CS(=O)(=O)c1ccc([C@H](CO)NC(=O)c2ccc3c(c2)nc(C2CC2)n3Cc2cccc3c2OC(F)(F)O3)cc1 [I-21, (R)-2-cyclopropyl-1-((2,2-difluorobenzo[d][1,3]dioxol-4-yl)methyl)-N-(2-hydroxy-1-(4-(methylsulfonyl)phenyl)ethyl)-1H-benzo[d]imidazole-5-carboxamide] | < 100 | < 100 |
| CS(=O)(=O)c1ccc([C@H](CO)NC(=O)c2ccc3c(c2)nc(C2CCC2)n3Cc2cccc3c2OC(F)(F)O3)cc1 [I-22, (R)-2-cyclobutyl-1-((2,2-difluorobenzo[d][1,3]dioxol-4-yl)methyl)-N-(2-hydroxy-1-(4-(methylsulfonyl)phenyl)ethyl)-1H-benzo[d]imidazole-5-carboxamide] | < 100 | < 100 |
| CS(=O)(=O)c1ccc([C@H](CO)NC(=O)c2ccc3c(c2)nc(C(F)F)n3Cc2cccc3c2OC(F)(F)O3)cc1 [I-23.1, (R)-1-((2,2-difluorobenzo[d][1,3]dioxol-4-yl)methyl)-2-(difluoromethyl)-N-(2-hydroxy-1-(4-(methylsulfonyl)phenyl)ethyl)-1H-benzo[d]imidazole-5-carboxamide] | < 100 | < 100 |
| CS(=O)(=O)c1ccc([C@@H](CO)NC(=O)c2ccc3c(c2)nc(C(F)F)n3Cc2cccc3c2OC(F)(F)O3)cc1 [I-23.2, (S)-1-((2,2-difluorobenzo[d][1,3]dioxol-4-yl)methyl)-2-(difluoromethyl)-N-(2-hydroxy-1-(4-(methylsulfonyl)phenyl)ethyl)-1H-benzo[d]imidazole-5-carboxamide] | 100 to 1000 | < 100 |
| CS(=O)(=O)c1ccc([C@H](CO)NC(=O)c2ccc3c(c2)nc(C2(F)CC2)n3Cc2cccc3c2OC(F)(F)O3)cc1 [I-24, (R)-1-((2,2-difluorobenzo[d][1,3]dioxol-4-yl)methyl)-2-(1-fluorocyclopropyl)-N-(2-hydroxy-1-(4-(methylsulfonyl)phenyl)ethyl)-1H-benzo[d]imidazole-5-carboxamide] | < 100 | < 100 |
| CCS(=O)(=O)c1ccc(CNC(=O)c2ccc3c(c2)nc(C(F)(F)F)n3Cc2cccc3c2OC(F)(F)O3)cc1 [I-25, 1-((2,2-difluorobenzo[d][1,3]dioxol-4-yl)methyl)-N-(4-(ethylsulfonyl)benzyl)-2-(trifluoromethyl)-1H-benzo[d]imidazole-5-carboxamide] | < 100 | < 100 |
| CCS(=O)(=O)c1ccc(CNC(=O)c2ccc3c(c2)nc(C2CC2)n3Cc2cccc3c2OC(F)(F)O3)cc1 [I-26, 2-cyclopropyl-1-((2,2-difluorobenzo[d][1,3]dioxol-4-yl)methyl)-N-(4-(ethylsulfonyl)benzyl)-1H-benzo[d]imidazole-5-carboxamide] | < 100 | < 100 |
| CCS(=O)(=O)c1ccc(CNC(=O)c2ccc3c(c2)nc(C2(F)CC2)n3Cc2cccc3c2OC(F)(F)O3)cc1 [I-27, 1-((2,2-difluorobenzo[d][1,3]dioxol-4-yl)methyl)-N-(4-(ethylsulfonyl)benzyl)-2-(1-fluorocyclopropyl)-1H-benzo[d]imidazole-5-carboxamide] | < 100 | < 100 |
| CCS(=O)(=O)c1ccc(CNC(=O)c2ccc3c(c2)nc(COC)n3Cc2cccc3c2OC(F)(F)O3)cc1 [I-28, 1-((2,2-difluorobenzo[d][1,3]dioxol-4-yl)methyl)-N-(4-(ethylsulfonyl)benzyl)-2-(methoxymethyl)-1H-benzo[d]imidazole-5-carboxamide] | < 100 | < 100 |
| CCc1nc2cc(C(=O)NCc3ccc(S(=O)(=O)CC)cc3)ccc2n1Cc1cccc2c1OC(F)(F)O2 [I-29, 1-((2,2-difluorobenzo[d][1,3]dioxol-4-yl)methyl)-2-ethyl-N-(4-(ethylsulfonyl)benzyl)-1H-benzo[d]imidazole-5-carboxamide] | < 100 | < 100 |
| CCS(=O)(=O)c1ccc(CNC(=O)c2ccc3c(c2)nc(C(C)(C)C)n3Cc2cccc3c2OC(F)(F)O3)cc1 [I-30, 2-(tert-butyl)-1-((2,2-difluorobenzo[d][1,3]dioxol-4-yl)methyl)-N-(4-(ethylsulfonyl)benzyl)-1H-benzo[d]imidazole-5-carboxamide] | < 100 | < 100 |
| CCS(=O)(=O)c1ccc(CNC(=O)c2ccc3c(c2)nc(C(C)C)n3Cc2cccc3c2OC(F)(F)O3)cc1 [I-31, 1-((2,2-difluorobenzo[d][1,3]dioxol-4-yl)methyl)-N-(4-(ethylsulfonyl)benzyl)-2-isopropyl-1H-benzo[d]imidazole-5-carboxamide] | < 100 | < 100 |
| CCS(=O)(=O)c1ccc(CNC(=O)c2ccc3c(c2)nc(C)n3Cc2cccc3c2OC(F)(F)O3)cc1 [I-32, 1-((2,2-difluorobenzo[d][1,3]dioxol-4-yl)methyl)-N-(4-(ethylsulfonyl)benzyl)-2-methyl-1H-benzo[d]imidazole-5-carboxamide] | > 1000 | < 100 |
| CCS(=O)(=O)c1ccc(CNC(=O)c2ccc3c(c2)nc(CC(C)C)n3Cc2cccc3c2OC(F)(F)O3)cc1 [I-33, 1-((2,2-difluorobenzo[d][1,3]dioxol-4-yl)methyl)-N-(4-(ethylsulfonyl)benzyl)-2-isobutyl-1H-benzo[d]imidazole-5-carboxamide] | < 100 | < 100 |
| CS(=O)(=O)c1ccc(CNC(=O)c2ccc3c(c2)nc(C2CC2)n3Cc2cccc3c2OC(F)(F)O3)cc1 [I-34, 2-cyclopropyl-1-((2,2-difluorobenzo[d][1,3]dioxol-4-yl)methyl)-N-(4-(methylsulfonyl)benzyl)-1H-benzo[d]imidazole-5-carboxamide] | < 100 | < 100 |
| CNS(=O)(=O)c1ccc(CNC(=O)c2ccc3c(c2)nc(C2CC2)n3Cc2cccc3c2OC(F)(F)O3)cc1 [I-35, 2-cyclopropyl-1-((2,2-difluorobenzo[d][1,3]dioxol-4-yl)methyl)-N-(4-(N-methylsulfamoyl)benzyl)-1H-benzo[d]imidazole-5-carboxamide] | < 100 | < 100 |
